Experimental findings from patent US20130150376A1, “Novel Sultam Compounds” (PFIZER INC., priority 2010, published 2013) are described below.

What is called pIC50 is the IC50 on a negative log10 scale, so that one unit is a factor of ten.

For this assay, the target named is T1, BACE1 enzyme (soluble, truncated BACE enzyme, BACE1deltaTM96His) (Homo sapiens, UniProt P56817).
T1 construct: soluble, truncated BACE enzyme (BACE1deltaTM96His); His; made in house
As to the kind of experiment: BACE1 Fluorescent Polarization (FP) Assay. The format is biochemical. To be noted: geometric mean of 2-4 IC50 determinations unless footnoted (^2: 5-6 determinations; ^4: single determination). The procedure, abridged: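 Soluble truncated His-tagged BACE1 (BACE1deltaTM96His, from CHO-K1 conditioned media; 0.1 nM final) with biotinylated Oregon green peptide substrate (150 nM final), in 100 mM sodium acetate pH 4.5, 0.001% Tween-20. Compounds in ½ log series from 100 μM top; 3 h at 37° C. Stopped with streptavidin; cleavage read as Δ mP fluorescence polarization (Ex485/Em530).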

The mark [1] stands for this setting: 8-point curve, read-out: BACE activity, 8-point curve, IC50.
The mark [2] stands for this setting: 11-point curve, read-out: BACE activity, 11-point curve, IC50.

pIC50: −log10 of the molar value. Where a name gives a salt, the structure may show the parent alone. Read-outs that look alike come from different tables or passages of the source.

T1 sequence (P56817 46-457): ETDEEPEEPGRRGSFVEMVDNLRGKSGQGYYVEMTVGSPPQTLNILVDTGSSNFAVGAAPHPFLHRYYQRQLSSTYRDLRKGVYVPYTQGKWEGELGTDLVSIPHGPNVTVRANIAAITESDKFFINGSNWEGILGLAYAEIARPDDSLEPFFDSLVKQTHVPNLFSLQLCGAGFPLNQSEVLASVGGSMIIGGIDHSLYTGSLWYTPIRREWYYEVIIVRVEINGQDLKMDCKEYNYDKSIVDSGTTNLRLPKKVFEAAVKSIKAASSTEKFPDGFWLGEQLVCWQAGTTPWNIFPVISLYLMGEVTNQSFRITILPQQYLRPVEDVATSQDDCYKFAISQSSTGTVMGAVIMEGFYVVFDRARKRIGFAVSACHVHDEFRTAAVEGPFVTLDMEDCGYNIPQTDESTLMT

Take `COc1ccc2[nH]c(CN3CC[C@]4(C=CS(=O)(=O)N4c4cccc(F)c4)C[C@@H]3C)cc2c1` [Example 42, (5R,7S)-1-(3-fluorophenyl)-8-[(5-methoxy-1H-indol-2-yl)methyl]-7-methy1-2-thia-1,8-diazaspiro[4.5]dec-3-ene 2,2-dioxide]: the pIC50 by setting is: under setting [1], 6.93; under setting [2], 5.65.

Regarding `Cc1ccncc1-c1cccc(CN2CC[C@]3(CCS(=O)(=O)N3c3cccc(F)c3)C[C@@H]2C)c1` [Example 55, (5R,7S)-1-(3-fluorophenyl)-7-methyl-8-[3-(4-methy|pyridin-3-yl)benzyl]-2-thia-1,8-diazaspiro[4.5]decane 2,2-dioxide, hydrochloride salt], the pIC50 is 6.41 under setting [1] and 5.99 under setting [2].
